# In US20060069132A1, “Azolecarboxamide herbicides” (priority 2004, published 2006):
# What was measured:
# velvetleaf [1] = test: Test B pre-/postemergence herbicide test; type: in vivo, Abutilon theophrasti
# Outline: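 Plants compared with untreated controls 13–15 days post-treatment and given a visual 0–100 injury score. Applications: preemergence to seeds; postemergence at 1- to 4-leaf (2–18 cm); paddy species flooded, 2-leaf stage. Vehicle non-phytotoxic, surfactant included.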
# Surinam grass = test: Test C pre-/postemergence herbicide test; type: in vivo, Urochloa decumbens
# Outline: (§1)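 Visual ratings on a 0–100 scale (100 = complete control) made versus untreated controls after 12 to 14 greenhouse days. Test chemicals, formulated in surfactant-containing non-phytotoxic solvent, applied preemergence to planted seeds or postemergence to 1- to 4-leaf plants (2 to 18 cm).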
# corn = test: Test C pre-/postemergence herbicide test; type: in vivo, Zea mays
# Outline: as §1
# kochia = test: Test C pre-/postemergence herbicide test; type: in vivo, Kochia scoparia
# Outline: as §1
# morningglory = test: Test C pre-/postemergence herbicide test; type: in vivo, Ipomoea coccinea; parameters: key to Plant response rating, Morningglory: 0 = no effect, 100 = complete control
# Outline: as §1
# velvetleaf [2] = test: Test C pre-/postemergence herbicide test; type: in vivo, Abutilon theophrasti
# Outline: as §1
# [3] = tested on: smallflower umbrella sedge; test: Test C flooded paddy test; type: in vivo, Cyperus difformis; conditions: for Plant response rating, Sedge, Umbrella: 500 g ai/ha, visual rating after 12 to 14 days
# [4] = 125 g ai/ha; 0 is no effect, 100 is complete control; preemergence
# [5] = 125 g ai/ha; visual rating, scale 0 (no effect) to 100 (complete control); postemergence
# [6] = postemergence, 500 g ai/ha; scale 0 to 100, 0 is no effect, 100 is complete control
# [7] = 62 g ai/ha, preemergence, scale 0 to 100
# [8] = 250 g ai/ha, scale 0-100, preemergence
# [9] = 125 g ai/ha, scale 0 (no effect) to 100 (complete control), visual, 12 to 14 days, preemergence
# [10] = 125 g ai/ha, scale 0 to 100 (0 no effect, 100 complete control)
# [11] = 250 g ai/ha, scale of 0 to 100, 0 is no effect, 100 is complete control
# [12] = scale 0 to 100 (0 no effect, 100 complete control)
# [13] = 500 g ai/ha, scale 0 to 100 (0 no effect, 100 complete control), visual, 12 to 14 days, preemergence
# [14] = Postemergence, 500 g ai/ha, scale 0 to 100
# [15] = Postemergence, 250 g ai/ha, scale 0 to 100, 0 no effect, 100 complete control
# [16] = postemergence, 125 g ai/ha, scale 0 to 100
# [17] = postemergence, 62 g ai/ha, scale 0 to 100
# [18] = Preemergence, 500 g ai/ha, scale 0 to 100, 0 no effect, 100 complete control
# [19] = 500 g ai/ha; visual rating, 0 = no effect, 100 = complete control; preemergence
smiles,measurement,setting,value
CCn1nc(C(C)(C)C)cc1C(=O)Nc1cc(C(=S)N(C)C)ccn1 [Compound 334],"Plant response rating (0 to 100 scale), Velvetleaf",velvetleaf [1]; [4],100
same,Velvetleaf plant response rating,velvetleaf [1]; [5],50
same,Velvetleaf plant response rating,velvetleaf [1]; [6],60
same,"Plant response rating, Surinam Grass",Surinam grass; [7],55
same,"Plant response rating, Surinam Grass",Surinam grass; [8],95
same,"Plant response rating, Corn",corn; [7],0
same,"Plant response rating, Corn",corn; [9],20
same,"Plant response rating, Corn",corn; [8],50
same,"Plant response rating, Kochia",kochia; [7],100
same,"Plant response rating, Kochia",kochia; [9],100
same,"Plant response rating, Kochia",kochia; [8],100
same,"Plant response rating, Morningglory",morningglory; [7],5
same,"Plant response rating, Morningglory",morningglory; [9],20
same,"Plant response rating, Morningglory",morningglory; [8],40
same,"Plant response rating, Velvetleaf",velvetleaf [2]; [7],5
same,"Plant response rating, Velvetleaf",velvetleaf [2]; [8],85
same,"Sedge, Umbrella plant response rating","[3]; 62 g ai/ha, scale 0 to 100",80
same,"Sedge, Umbrella plant response rating",[3]; [10],90
same,"Sedge, Umbrella plant response rating",[3]; [11],90
same,"Plant response rating, Sedge, Umbrella",[3]; [12],95
CCn1nc(C(C)(C)C)cc1C(=O)Nc1cccc(OC(F)F)c1 [Compound 332],"Plant response rating (0 to 100 scale), Velvetleaf",velvetleaf [1]; [4],30
same,Velvetleaf plant response rating,velvetleaf [1]; [5],60
same,Velvetleaf plant response rating,velvetleaf [1]; [6],90
same,"Plant response rating, Surinam Grass",Surinam grass; [7],5
same,"Plant response rating, Surinam Grass",Surinam grass; [8],10
same,"Plant response rating, Surinam Grass",Surinam grass; [13],15
same,Surinam Grass plant response rating,Surinam grass; [14],30
same,"Plant response rating, Surinam Grass",Surinam grass; [15],10
same,"Plant response rating, Surinam Grass",Surinam grass; [16],5
same,"Plant response rating, Surinam Grass",Surinam grass; [17],5
same,"Plant response rating, Corn",corn; [7],0
same,"Plant response rating, Corn",corn; [9],0
same,"Plant response rating, Corn",corn; [8],0
same,"Plant response rating, Corn",corn; [13],5
same,Corn plant response rating,corn; [14],5
same,"Plant response rating, Corn",corn; [15],5
same,"Plant response rating, Corn",corn; [16],0
same,"Plant response rating, Corn",corn; [17],0
same,"Plant response rating, Kochia",kochia; [7],100
same,"Plant response rating, Kochia",kochia; [9],100
same,"Plant response rating, Kochia",kochia; [8],100
same,"Plant response rating, Kochia",kochia; [13],100
same,Kochia plant response rating,kochia; [14],100
same,"Plant response rating, Kochia",kochia; [15],95
same,"Plant response rating, Kochia",kochia; [16],90
same,"Plant response rating, Kochia",kochia; [17],80
same,"Plant response rating, Morningglory",morningglory; [7],0
same,"Plant response rating, Morningglory",morningglory; [9],0
same,"Plant response rating, Morningglory",morningglory; [8],0
same,"Plant response rating, Morningglory",morningglory; [13],0
same,"Plant response rating, Morningglory",morningglory; [15],80
same,"Plant response rating, Morningglory",morningglory; [16],10
same,"Plant response rating, Morningglory",morningglory; [17],5
same,"Plant response rating, Velvetleaf",velvetleaf [2]; [7],40
same,"Plant response rating, Velvetleaf",velvetleaf [2]; [8],45
same,"Plant response rating, Velvetleaf",velvetleaf [2]; [13],70
same,Velvetleaf plant response rating,velvetleaf [2]; [14],90
same,"Plant response rating, Velvetleaf",velvetleaf [2]; [15],85
same,"Plant response rating, Velvetleaf",velvetleaf [2]; [16],60
same,"Plant response rating, Velvetleaf",velvetleaf [2]; [17],40
same,"Sedge, Umbrella plant response rating","[3]; 62 g ai/ha, scale 0 to 100",65
same,"Sedge, Umbrella plant response rating",[3]; [10],80
same,"Sedge, Umbrella plant response rating",[3]; [11],85
same,"Plant response rating, Sedge, Umbrella",[3]; [12],85
"CCn1nc(C(C)(C)C)cc1C(=O)Nc1cccc(C(N)=O)n1 [Compound 162, 6-[[[3-(1,1-dimethylethyl)-1-ethyl-1H-pyrazol-5-yl]carbonyl]amino]-2-pyridinecarboxamide]","Plant response rating, Velvetleaf","velvetleaf [1]; 500 g ai/ha; visual rating 0-100, 0 no effect, 100 complete control; preemergence",100
same,Velvetleaf plant response rating,"velvetleaf [1]; postemergence, 125 g ai/ha; visual rating, scale 0 (no effect) to 100 (complete control)",60
same,Velvetleaf plant response rating,"velvetleaf [1]; postemergence, 500 g ai/ha; visual rating, scale 0 (no effect) to 100 (complete control)",80
same,"Plant response rating, Velvetleaf","velvetleaf [1]; preemergence, 125 g ai/ha; 0 to 100 scale, 0 is no effect, 100 is complete control",90
same,"Plant response rating, Surinam Grass",Surinam grass; [7],0
same,"Plant response rating, Surinam Grass",Surinam grass; [9],75
same,Surinam Grass plant response rating,Surinam grass; [18],95
same,"Plant response rating, Corn",corn; [7],20
same,"Plant response rating, Corn",corn; [9],70
same,"Plant response rating, Corn","corn; 250 g ai/ha, scale 0 to 100 (0 no effect, 100 complete control), visual, 12 to 14 days, preemergence",75
same,Corn plant response rating,corn; [18],75
same,"Plant response rating, Kochia",kochia; [7],65
same,"Plant response rating, Kochia",kochia; [9],75
same,Kochia plant response rating,kochia; [18],100
same,"Plant response rating, Morningglory",morningglory; [7],45
same,"Plant response rating, Morningglory",morningglory; [9],100
same,Morningglory plant response rating,morningglory; [18],100
same,"Plant response rating, Velvetleaf",velvetleaf [2]; [7],70
same,"Plant response rating, Velvetleaf",velvetleaf [2]; [9],75
same,Velvetleaf plant response rating,velvetleaf [2]; [18],100
same,"Sedge, Umbrella plant response rating","[3]; 62 g ai/ha, scale 0 to 100 (0 no effect, 100 complete control)",70
same,"Sedge, Umbrella plant response rating",[3]; [11],75
CCNC(=O)c1cccc(NC(=O)c2cc(C3(C)CC3)nn2CC)c1 [Compound 306],Velvetleaf plant response rating,velvetleaf [1]; [5],40
same,"Plant response rating, Velvetleaf",velvetleaf [1]; [19],100
same,Velvetleaf plant response rating,velvetleaf [1]; [6],60
same,"Plant response rating, Surinam Grass",Surinam grass; [8],40
same,"Plant response rating, Surinam Grass",Surinam grass; [13],95
same,"Plant response rating, Corn",corn; [7],5
same,"Plant response rating, Corn",corn; [9],10
same,"Plant response rating, Corn",corn; [8],20
same,"Plant response rating, Corn",corn; [13],50
same,"Plant response rating, Kochia",kochia; [7],0
same,"Plant response rating, Kochia",kochia; [9],80
same,"Plant response rating, Kochia",kochia; [8],100
same,"Plant response rating, Kochia",kochia; [13],100
same,"Plant response rating, Morningglory",morningglory; [7],5
same,"Plant response rating, Morningglory",morningglory; [9],5
same,"Plant response rating, Morningglory",morningglory; [8],10
same,"Plant response rating, Morningglory",morningglory; [13],20
same,"Plant response rating, Velvetleaf",velvetleaf [2]; [7],5
same,"Plant response rating, Velvetleaf",velvetleaf [2]; [13],10
same,"Sedge, Umbrella plant response rating","[3]; 62 g ai/ha, scale 0 to 100",85
same,"Sedge, Umbrella plant response rating",[3]; [10],90
same,"Sedge, Umbrella plant response rating",[3]; [11],90
same,"Plant response rating, Sedge, Umbrella",[3]; [12],90
CCN(C)C(=O)c1ccc(F)c(NC(=O)C2CC(C(C)(C)C)=NN2CC)c1 (racemic) [Compound 307],Velvetleaf plant response rating,velvetleaf [1]; [5],10
same,"Plant response rating, Velvetleaf",velvetleaf [1]; [19],100
same,Velvetleaf plant response rating,velvetleaf [1]; [6],60
same,"Plant response rating, Surinam Grass",Surinam grass; [7],70
same,"Plant response rating, Surinam Grass",Surinam grass; [8],90
same,"Plant response rating, Surinam Grass",Surinam grass; [13],90
same,"Plant response rating, Corn",corn; [7],0
same,"Plant response rating, Corn",corn; [9],20
same,"Plant response rating, Corn",corn; [8],30
same,"Plant response rating, Corn",corn; [13],45
same,"Plant response rating, Kochia",kochia; [7],100
same,"Plant response rating, Kochia",kochia; [9],100
same,"Plant response rating, Kochia",kochia; [8],100
same,"Plant response rating, Kochia",kochia; [13],100
same,"Plant response rating, Morningglory",morningglory; [7],0
same,"Plant response rating, Morningglory",morningglory; [9],10
same,"Plant response rating, Morningglory",morningglory; [8],10
same,"Plant response rating, Morningglory",morningglory; [13],15
same,"Plant response rating, Velvetleaf",velvetleaf [2]; [7],70
same,"Plant response rating, Velvetleaf",velvetleaf [2]; [8],100
same,"Plant response rating, Velvetleaf",velvetleaf [2]; [13],100
same,"Sedge, Umbrella plant response rating","[3]; 62 g ai/ha, scale 0 to 100",40
same,"Sedge, Umbrella plant response rating",[3]; [10],70
same,"Sedge, Umbrella plant response rating",[3]; [11],80
same,"Plant response rating, Sedge, Umbrella",[3]; [12],85
